Test results published in PubChem BioAssay (NCI).
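Growth conditions: 96-well plates. Treatment: test compound, 48 hours, 5 concentrations. Analysis: linear interpolation between bracketing concentrations; unreached endpoints set to highest concentration. Abbreviation: GI50, concentration required for 50% inhibition of growth. TGI marks complete inhibition of growth.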

Legend:
Test in all cases: growth of human tumour cells (NCI), 48 h
786-0 renal = test system: 786-0 renal
A498 renal = test system: A498 renal
A549 NSCLC = test system: A549 NSCLC
ACHN renal = test system: ACHN renal
BT-549 breast = test system: BT-549 breast
CCRF-CEM leukemia = test system: CCRF-CEM leukemia
COLO 205 colon = test system: COLO 205 colon
DU-145 prostate = test system: DU-145 prostate
EKVX NSCLC = test system: EKVX NSCLC
HCC-2998 colon = test system: HCC-2998 colon
HCT-116 colon = test system: HCT-116 colon
HCT-15 colon = test system: HCT-15 colon
HL-60(TB) leukemia = test system: HL-60(TB) leukemia
HOP-62 NSCLC = test system: HOP-62 NSCLC
HOP-92 NSCLC = test system: HOP-92 NSCLC
HS 578T breast = test system: HS 578T breast
HT29 colon = test system: HT29 colon
IGROV1 ovarian = test system: IGROV1 ovarian
K-562 leukemia = test system: K-562 leukemia
KM12 colon = test system: KM12 colon
LOX IMVI melanoma = test system: LOX IMVI melanoma
M14 melanoma = test system: M14 melanoma
MALME-3M melanoma = test system: MALME-3M melanoma
MCF7 breast = test system: MCF7 breast
MDA-MB-231 breast = test system: MDA-MB-231 breast
MDA-MB-435 = test system: MDA-MB-435
MOLT-4 leukemia = test system: MOLT-4 leukemia
NCI-H226 lung = test system: NCI-H226 lung
NCI-H23 lung = test system: NCI-H23 lung
NCI-H460 lung = test system: NCI-H460 lung
NCI-H522 lung = test system: NCI-H522 lung
NCI/ADR-RES ovarian = test system: NCI/ADR-RES ovarian
OVCAR-3 ovarian = test system: OVCAR-3 ovarian
OVCAR-4 ovarian = test system: OVCAR-4 ovarian
OVCAR-5 ovarian = test system: OVCAR-5 ovarian
OVCAR-8 ovarian = test system: OVCAR-8 ovarian
PC-3 prostate = test system: PC-3 prostate
RPMI-8226 leukemia = test system: RPMI-8226 leukemia
RXF 393 renal = test system: RXF 393 renal
SF-268 CNS = test system: SF-268 CNS
SF-295 CNS = test system: SF-295 CNS
SF-539 CNS = test system: SF-539 CNS
SK-MEL-2 melanoma = test system: SK-MEL-2 melanoma
SK-MEL-28 melanoma = test system: SK-MEL-28 melanoma
SK-MEL-5 melanoma = test system: SK-MEL-5 melanoma
SK-OV-3 ovarian = test system: SK-OV-3 ovarian
SN12C renal = test system: SN12C renal
SNB-19 CNS = test system: SNB-19 CNS
SNB-75 CNS = test system: SNB-75 CNS
SR leukemia = test system: SR leukemia
SW-620 colon = test system: SW-620 colon
T-47D breast = test system: T-47D breast
TK-10 renal = test system: TK-10 renal
U251 CNS = test system: U251 CNS
UACC-257 melanoma = test system: UACC-257 melanoma
UACC-62 melanoma = test system: UACC-62 melanoma
UO-31 renal = test system: UO-31 renal

With `CC(=[N-])N1CCC[C@@H](Nc2c3ccccc3nc3ccccc23)C1.[Cl][Pt].[NH-]CCC[NH-]` the GI50 (786-0 renal) was 3890 nM, the TGI (786-0 renal) was greater than 24800 nM and the GI50 (A498 renal) was 221 nM. The TGI (A498 renal) was 656 nM, the GI50 (A549 NSCLC) was 32.5 nM and the TGI (A549 NSCLC) was greater than 100000 nM. For the same molecule, the GI50 (ACHN renal) was 159 nM, the TGI (ACHN renal) was 2470 nM and the GI50 (BT-549 breast) was 2900 nM. For the same molecule, the TGI (BT-549 breast) was 64700 nM, the GI50 (CCRF-CEM leukemia) was 1580 nM and the TGI (CCRF-CEM leukemia) was greater than 100000 nM. For the same molecule, the GI50 (COLO 205 colon) was 431 nM, the TGI (COLO 205 colon) was 2690 nM and the GI50 (DU-145 prostate) was 32.6 nM. For the same molecule, the TGI (DU-145 prostate) was greater than 100000 nM, the GI50 (EKVX NSCLC) was 2170 nM and the TGI (EKVX NSCLC) was 36000 nM. It also gave a GI50 (HCC-2998 colon) of 1700 nM, a TGI (HCC-2998 colon) of 9170 nM and a GI50 (HCT-116 colon) of 1280 nM. The TGI (HCT-116 colon) was greater than 100000 nM, the GI50 (HCT-15 colon) was 2370 nM and the TGI (HCT-15 colon) was greater than 100000 nM. The GI50 (HL-60(TB) leukemia) was 2040 nM, the TGI (HL-60(TB) leukemia) was greater than 100000 nM and the GI50 (HOP-62 NSCLC) was 1720 nM. It also gave a TGI (HOP-62 NSCLC) greater than 100000 nM, a GI50 (HOP-92 NSCLC) of 2210 nM and a TGI (HOP-92 NSCLC) of 8360 nM. For the same molecule, the GI50 (HS 578T breast) was 3330 nM, the TGI (HS 578T breast) was greater than 31400 nM and the GI50 (HT29 colon) was 440 nM. For the same molecule, the TGI (HT29 colon) was greater than 100000 nM, the GI50 (IGROV1 ovarian) was 577 nM and the TGI (IGROV1 ovarian) was greater than 100000 nM. For the same molecule, the GI50 (K-562 leukemia) was 375 nM, the TGI (K-562 leukemia) was greater than 100000 nM and the GI50 (KM12 colon) was 2490 nM. The TGI (KM12 colon) was greater than 100000 nM, the GI50 (LOX IMVI melanoma) was 2250 nM and the TGI (LOX IMVI melanoma) was greater than 21900 nM. It also gave a GI50 (M14 melanoma) of 3470 nM, a TGI (M14 melanoma) of 23700 nM and a GI50 (MALME-3M melanoma) of 1490 nM. It also gave a TGI (MALME-3M melanoma) of 4510 nM, a GI50 (MCF7 breast) of 357 nM and a TGI (MCF7 breast) greater than 100000 nM. It also gave a GI50 (MDA-MB-231 breast) of 2100 nM, a TGI (MDA-MB-231 breast) of 89100 nM and a GI50 (MDA-MB-435) of 4430 nM. The TGI (MDA-MB-435) was 18400 nM, the GI50 (MOLT-4 leukemia) was 359 nM and the TGI (MOLT-4 leukemia) was greater than 100000 nM. The GI50 (NCI-H226 lung) was 32.8 nM, the TGI (NCI-H226 lung) was 200 nM and the GI50 (NCI-H23 lung) was 198 nM. For the same molecule, the TGI (NCI-H23 lung) was 2750 nM, the GI50 (NCI-H460 lung) was 27.7 nM and the TGI (NCI-H460 lung) was greater than 40800 nM. It also gave a GI50 (NCI-H522 lung) of 25.8 nM, a TGI (NCI-H522 lung) of 165 nM and a GI50 (NCI/ADR-RES ovarian) of 46000 nM. The TGI (NCI/ADR-RES ovarian) was greater than 100000 nM, the GI50 (OVCAR-3 ovarian) was 763 nM and the TGI (OVCAR-3 ovarian) was greater than 41600 nM. It also gave a GI50 (OVCAR-4 ovarian) of 1250 nM, a TGI (OVCAR-4 ovarian) of 38900 nM and a GI50 (OVCAR-5 ovarian) of 2890 nM. It also gave a TGI (OVCAR-5 ovarian) of 36400 nM, a GI50 (OVCAR-8 ovarian) of 1040 nM and a TGI (OVCAR-8 ovarian) greater than 100000 nM. It also gave a GI50 (PC-3 prostate) of 3570 nM, a TGI (PC-3 prostate) of 44900 nM and a GI50 (RPMI-8226 leukemia) of 2420 nM. It also gave a TGI (RPMI-8226 leukemia) greater than 100000 nM, a GI50 (RXF 393 renal) of 1250 nM and a TGI (RXF 393 renal) of 2960 nM. It also gave a GI50 (SF-268 CNS) of 3680 nM, a TGI (SF-268 CNS) greater than 100000 nM and a GI50 (SF-295 CNS) of 384 nM. For the same molecule, the TGI (SF-295 CNS) was greater than 100000 nM, the GI50 (SF-539 CNS) was 2530 nM and the TGI (SF-539 CNS) was 18100 nM. The GI50 (SK-MEL-2 melanoma) was 2280 nM, the TGI (SK-MEL-2 melanoma) was 7230 nM and the GI50 (SK-MEL-28 melanoma) was 210 nM. It also gave a TGI (SK-MEL-28 melanoma) of 2310 nM, a GI50 (SK-MEL-5 melanoma) of 127 nM and a TGI (SK-MEL-5 melanoma) of 291 nM. It also gave a GI50 (SK-OV-3 ovarian) of 2430 nM, a TGI (SK-OV-3 ovarian) greater than 100000 nM and a GI50 (SN12C renal) of 21.4 nM. It also gave a GI50 (SNB-19 CNS) of 1490 nM, a TGI (SNB-19 CNS) greater than 100000 nM and a GI50 (SNB-75 CNS) of 2720 nM. The TGI (SNB-75 CNS) was 10100 nM, the GI50 (SR leukemia) was 445 nM and the TGI (SR leukemia) was greater than 100000 nM. It also gave a GI50 (SW-620 colon) of 268 nM, a TGI (SW-620 colon) greater than 100000 nM and a GI50 (T-47D breast) of 36.8 nM. The TGI (T-47D breast) was greater than 100000 nM, the GI50 (TK-10 renal) was 2760 nM and the TGI (TK-10 renal) was greater than 46100 nM. For the same molecule, the GI50 (U251 CNS) was 1580 nM, the TGI (U251 CNS) was greater than 100000 nM and the GI50 (UACC-257 melanoma) was 2490 nM. For the same molecule, the TGI (UACC-257 melanoma) was greater than 100000 nM, the GI50 (UACC-62 melanoma) was 29.5 nM and the TGI (UACC-62 melanoma) was 114 nM. For the same molecule, the GI50 (UO-31 renal) was 1780 nM and the TGI (UO-31 renal) was 9210 nM.
